Assay results reported in patent publication US11559510B2, “Isoflavonoid composition with improved pharmacokinetics” (NOXOPHARM LIMITED, priority 2016, dated 2023).
Read-outs that look alike come from different tables or passages of the source.

Experiment: Plasma pharmacokinetic studies of idronoxil in rats (rectal in cocoa butter vs intestinal in lipid emulsion)
Assay type: in vivo, Male Sprague-Dawley rats
Settings: for Peak Area in rat plasma, Rat 2 / Peak Area in rat plasma, Rat 1 / Peak Area in rat plasma, Rat 3 / half-life / concentration at 0 h / concentration at 1 h / concentration at 2 h / concentration at 3 h / concentration at 4 h / concentration at 5 h / concentration at 6 h / concentration at 7 h / concentration at 8 h: 10 mg/kg; for half-life / concentration at 0 h / concentration at 1 h / concentration at 2 h / concentration at 3 h / concentration at 4 h / concentration at 5 h / concentration at 6 h / concentration at 7 h / concentration at 8 h: male, Sprague-Dawley, rat, plasma
Description: The objective of this study in rodents is to determine the plasma pharmacokinetics of idronoxil after rectal delivery and intestinal delivery in lipids (cocoa butter or emulsion).
Part (1); n=3 rats: Rectal administration of idronoxil in cocoa butter liquid formulation, collection of plasma.
Part (2); n=3 rats: Intestinal administration (intraduodenal infusion) of idronoxil in lipid formulation, collection of plasma.
3 mg idronoxil per rat (equivalent to 10 mg/kg idronoxil).
Preparation of lipid formulation for intestinal dosing: Briefly, 3 mg of idronoxil, 80 mg oleic acid and 50 mg Tween 80 were mixed in a glass vial as the lipid phase. An aqueous phase consisting of 5.6 mL phosphate buffered saline (PBS, pH 7.4) was subsequently added to the lipid phase and the formulation emulsified by ultrasonication with a Misonix XL 2020 ultrasonic processor equipped with a 3.2-mm microprobe tip running at an amplitude of 240 μm and a frequency of 20 kHz for 4 min at room temperature.
Dose administration: The lipid formulations were infused into the duodenum of the rats at 2.8 mL/h for 2 h. After that, normal saline was infused into the duodenum at 2.8 mL/h for the remainder of the experiment to hydrate the animals.
Preparation of cocoa butter formulation for rectal dosing: Briefly, 100 mg of the cocoa butter was weighed into a homogenizer glass tube and melted at 32 degrees Celsius. 3 mg of idronoxil was then added and the formulation mixed manually with the homogenizer.
Dose administration: The warmed/melted cocoa butter formulations were dosed into the rectum via placing the tip of a 3 cm plastic mouse oral gavage device attached to a 1 ml plastic syringe exactly 1 cm into the rectum. The formulation was dosed over 15 sec. After that, normal saline was infused into the duodenum at 2.8 mL/h for the remainder of the experiment to hydrate the animals.
Male Sprague-Dawley rats (n=3 per group, body weight 300±40 g) were used in the study. Each animal was fasted overnight prior to surgical cannulation of the carotid artery and duodenum.
The rats were anaesthetized (using isoflurane anesthesia), placed on a heated pad at 37° C. and cannulas were inserted into the duodenum (for dosing of lipid formulation and rehydration) and carotid artery (for blood collection).
Post-surgery, rats were re-hydrated for 0.5 h via intraduodenal infusion of normal saline at 2.8 mL/h prior to dosing via intraduodenal or rectal route.
Plasma collection: Plasma samples were collected for 8 h into Eppendorf tubes containing 5 μL of 1,000 IU/mL heparin. Aliquots (20 μL) of each hourly collected samples were transferred into labelled 1.5 mL Eppendorf tubes. Aliquoted and original bulk samples were stored at −20° C. until analysis.
Sample analysis: Plasma concentrations of idronoxil were measured by the HMST-lab using a validated HPLC-MS/MS method. Briefly, LC-MS analysis was performed on a Shimadzu 8050 triple quadrupole mass spectrometer coupled with a Shimadzu Nexera X2 UHPLC. MS analysis was conducted in positive mode electrospray ionisation and quantitation of the analytes performed in MRM mode. The column employed was a Phenomenex Kinetex EVO C18 column (2.6 μm particle size, 50×2.1 mm i.d.) equipped with a Phenomenex Security Guard column with C18 packing material. The column was maintained at 40-C. The mobile phase consisted of 0.2% formic acid in water (Mobile Phase A) and 100% acetonitrile (Mobile Phase B). Separations were conducted using a flow rate of 0.4 mL/min and an injection volume of 6 μL. Samples were controlled in the autosampler at a temperature of 10° C.
Non-compartmental pharmacokinetic (PK) analysis: The elimination rate constant (slope), half-life (i.e., 0.693/k), and mean residence time (MRT) were calculated using excel. The area under the plasma-concentration time curves from time zero to 8 h (AUC0-8 h) were calculated using the trapezoid rule to the last measured time point.

[1] = Intestinal administration of idronoxil, lipid emulsion, 1 hrs
[2] = Intestinal administration of idronoxil, lipid emulsion, 2 hrs
[3] = Intestinal administration of idronoxil, lipid emulsion, 3 hrs
[4] = Intestinal administration of idronoxil, lipid emulsion, 4 hrs
[5] = Intestinal administration of idronoxil, lipid emulsion, 5 hrs
[6] = Intestinal administration of idronoxil, lipid emulsion, 6 hrs
[7] = Intestinal administration of idronoxil, lipid emulsion, 7 hrs
[8] = Intestinal administration of idronoxil, lipid emulsion, 8 hrs
[9] = Rectal administration of idronoxil, cocoa butter, 1 hrs
[10] = Rectal administration of idronoxil, cocoa butter, 2 hrs
[11] = Rectal administration of idronoxil, cocoa butter, 3 hrs
[12] = Rectal administration of idronoxil, cocoa butter, 4 hrs
[13] = Rectal administration of idronoxil, cocoa butter, 5 hrs
[14] = Rectal administration of idronoxil, cocoa butter, 6 hrs
[15] = Rectal administration of idronoxil, cocoa butter, 7 hrs
[16] = Rectal administration of idronoxil, cocoa butter, 8 hrs
[17] = intestinally-dosed rats compared with rectally-dosed rats
[18] = oral delivery (intestinal delivery model)
[19] = other: intraduodenal infusion, Intestinal delivery (intraduodenal infusion), lipid emulsion, read-out: Idronoxil Plasma Concentration Mean
[20] = other: intraduodenal infusion, Intestinal delivery (intraduodenal infusion), lipid emulsion, read-out: Idronoxil Plasma Concentration Rat 2
[21] = other: intraduodenal infusion, Intestinal delivery (intraduodenal infusion), lipid emulsion, read-out: Idronoxil Plasma Concentration Rat 1
[22] = other: intraduodenal infusion, Intestinal delivery (intraduodenal infusion), lipid emulsion, read-out: Idronoxil Plasma Concentration Rat 3
[23] = other: rectal, Rectal delivery, cocoa butter, read-out: Idronoxil Plasma Concentration Mean
[24] = other: rectal, Rectal delivery, cocoa butter, read-out: Idronoxil Plasma Concentration Rat 1
[25] = other: rectal, Rectal delivery, cocoa butter, read-out: Idronoxil Plasma Concentration Rat 2
[26] = other: rectal, Rectal delivery, cocoa butter, read-out: Idronoxil Plasma Concentration Rat 3

Oc1ccc(C2=Cc3ccc(O)cc3OC2)cc1 [Idronoxil, 2H-1-Benzopyran-7-0,1,3-(4-hydroxyphenyl)]
Peak Area in rat plasma, Rat 2 (Intestinal administration of idronoxil, lipid emulsion, 0 hrs): 62,126 | Peak Area in rat plasma, Rat 1 [1]: 236,465 | Peak Area in rat plasma, Rat 2 [1]: 184,114 | Peak Area in rat plasma, Rat 3 [1]: 222,037 | Peak Area in rat plasma, Rat 1 [2]: 335,894 | Peak Area in rat plasma, Rat 2 [2]: 238,289 | Peak Area in rat plasma, Rat 3 [2]: 237,900 | Peak Area in rat plasma, Rat 1 [3]: 34,094 | Peak Area in rat plasma, Rat 2 [3]: 71,267 | Peak Area in rat plasma, Rat 3 [3]: 32,152 | Peak Area in rat plasma, Rat 1 [4]: 25,198 | Peak Area in rat plasma, Rat 2 [4]: 14,571 | Peak Area in rat plasma, Rat 3 [4]: 13,053 | Peak Area in rat plasma, Rat 1 [5]: 26,342 | Peak Area in rat plasma, Rat 2 [5]: 10,183 | Peak Area in rat plasma, Rat 3 [5]: 13,297 | Peak Area in rat plasma, Rat 1 [6]: 6,108 | Peak Area in rat plasma, Rat 2 [6]: 8,531 | Peak Area in rat plasma, Rat 3 [6]: 17,321 | Peak Area in rat plasma, Rat 1 [7]: 8,023 | Peak Area in rat plasma, Rat 2 [7]: 14,276 | Peak Area in rat plasma, Rat 3 [7]: 8,371 | Peak Area in rat plasma, Rat 1 [8]: 13,012 | Peak Area in rat plasma, Rat 2 [8]: 9,110 | Peak Area in rat plasma, Rat 3 [8]: 8,020 | Peak Area in rat plasma, Rat 1 [9]: 57,590 | Peak Area in rat plasma, Rat 2 [9]: 213,825 | Peak Area in rat plasma, Rat 3 [9]: 46,167 | Peak Area in rat plasma, Rat 1 [10]: 37,493 | Peak Area in rat plasma, Rat 2 [10]: 179,554 | Peak Area in rat plasma, Rat 3 [10]: 50,847 | Peak Area in rat plasma, Rat 1 [11]: 37,603 | Peak Area in rat plasma, Rat 2 [11]: 152,537 | Peak Area in rat plasma, Rat 3 [11]: 45,812 | Peak Area in rat plasma, Rat 1 [12]: 34,050 | Peak Area in rat plasma, Rat 2 [12]: 117,814 | Peak Area in rat plasma, Rat 3 [12]: 49,738 | Peak Area in rat plasma, Rat 1 [13]: 61,323 | Peak Area in rat plasma, Rat 2 [13]: 153,360 | Peak Area in rat plasma, Rat 3 [13]: 75,786 | Peak Area in rat plasma, Rat 1 [14]: 41,246 | Peak Area in rat plasma, Rat 2 [14]: 114,191 | Peak Area in rat plasma, Rat 3 [14]: 42,370 | Peak Area in rat plasma, Rat 1 [15]: 46,844 | Peak Area in rat plasma, Rat 2 [15]: 100,506 | Peak Area in rat plasma, Rat 3 [15]: 25,104 | Peak Area in rat plasma, Rat 1 [16]: 14,934 | Peak Area in rat plasma, Rat 2 [16]: 80,236 | Peak Area in rat plasma, Rat 3 [16]: 40,752 | amount of idronoxil observed in plasma, rectal relative to oral administration (at 3 to 4 hours after administration): 3 to 4 times | time for which blood levels >20 ng/mL were achieved (idronoxil dosed orally (intestinal delivery model)): about 3 hours | time from administration by which the bulk of the total exposure is completed (intestinally-dosed rats): about 3 hours | maximum concentration of free idronoxil [17]: significantly greater | proportion of drug metabolized by Phase 2 metabolism [17]: considerably greater | half-life [18]: ~45 min | half-life (rectal idronoxil): > 480 min | concentration at 0 h [19]: 33.8 ng/mL | concentration at 0 h [20]: 33.8 ng/mL | concentration at 1 h [19]: 118 ng/mL | concentration at 1 h [21]: 114 ng/mL | concentration at 1 h [20]: 114 ng/mL | concentration at 1 h [22]: 128 ng/mL | concentration at 2 h [19]: 158 ng/mL | concentration at 2 h [21]: 200 ng/mL | concentration at 2 h [20]: 140 ng/mL | concentration at 2 h [22]: 136 ng/mL | concentration at 3 h [19]: 24.3 ng/mL | concentration at 3 h [21]: 17.8 ng/mL | concentration at 3 h [20]: 38.2 ng/mL | concentration at 3 h [22]: 16.8 ng/mL | concentration at 4 h [19]: 9.57 ng/mL | concentration at 4 h [21]: 16.1 ng/mL | concentration at 4 h [20]: 7.03 ng/mL | concentration at 4 h [22]: 5.62 ng/mL | concentration at 5 h [19]: 9.27 ng/mL | concentration at 5 h [21]: 17.4 ng/mL | concentration at 5 h [20]: 4.46 ng/mL | concentration at 5 h [22]: 6 ng/mL | concentration at 6 h [19]: 4.79 ng/mL | concentration at 6 h [21]: 2.86 ng/mL | concentration at 6 h [20]: 3.79 ng/mL | concentration at 6 h [22]: 7.72 ng/mL | concentration at 7 h [19]: 5.04 ng/mL | concentration at 7 h [21]: 4.68 ng/mL | concentration at 7 h [20]: 6.75 ng/mL | concentration at 7 h [22]: 3.7 ng/mL | concentration at 8 h [19]: 5.14 ng/mL | concentration at 8 h [21]: 7.83 ng/mL | concentration at 8 h [20]: 4.23 ng/mL | concentration at 8 h [22]: 3.37 ng/mL | concentration at 0 h [23]: 0 ng/mL | concentration at 1 h [23]: 49.4 ng/mL | concentration at 1 h [24]: 26.7 ng/mL | concentration at 1 h [25]: 96.5 ng/mL | concentration at 1 h [26]: 24.9 ng/mL | concentration at 2 h [23]: 42.9 ng/mL | concentration at 2 h [24]: 15.9 ng/mL | concentration at 2 h [25]: 88.1 ng/mL | concentration at 2 h [26]: 24.7 ng/mL | concentration at 3 h [23]: 37.3 ng/mL | concentration at 3 h [24]: 15.9 ng/mL | concentration at 3 h [25]: 74.2 ng/mL | concentration at 3 h [26]: 21.8 ng/mL | concentration at 4 h [23]: 30.1 ng/mL | concentration at 4 h [24]: 14.4 ng/mL | concentration at 4 h [25]: 53.7 ng/mL | concentration at 4 h [26]: 22.3 ng/mL | concentration at 5 h [23]: 46.3 ng/mL | concentration at 5 h [24]: 27.9 ng/mL | concentration at 5 h [25]: 71.4 ng/mL | concentration at 5 h [26]: 39.5 ng/mL | concentration at 6 h [23]: 30.2 ng/mL | concentration at 6 h [24]: 17.8 ng/mL | concentration at 6 h [25]: 51.3 ng/mL | concentration at 6 h [26]: 21.6 ng/mL | concentration at 7 h [23]: 25 ng/mL | concentration at 7 h [24]: 20.6 ng/mL | concentration at 7 h [25]: 43 ng/mL | concentration at 7 h [26]: 11.4 ng/mL | concentration at 8 h [23]: 18.4 ng/mL | concentration at 8 h [24]: 5.74 ng/mL | concentration at 8 h [25]: 33.4 ng/mL | concentration at 8 h [26]: 16.1 ng/mL | time at which drug levels are sub-therapeutic [18]: < 4 h | time within which drug levels substantially fall [18]: 2 to 3 h | plasma concentration (rats, 10 mg/kg body weight, single rectal administration, up to 8 hours): 35 to 40 ng/mL | time for which therapeutic levels of free idronoxil were maintained in the blood (rectal delivery): at least 8 hours | half-life, rectal relative to oral idronoxil (rectal vs oral): at least 5 times | time for which idronoxil levels remain almost constant (steady-state levels) post administration (rectally-dosed rats): at least 8 hours
